# Measured values as given in BindingDB's records for doi:10.1016/S0960-894X(02)00564-4 (Universita Degli Studi Di Firenze, 2002).
# Target: T1, Collagenase ColG (Hathewaya histolytica, UniProt Q9X721)
# T1 sequence (Q9X721 whole entry): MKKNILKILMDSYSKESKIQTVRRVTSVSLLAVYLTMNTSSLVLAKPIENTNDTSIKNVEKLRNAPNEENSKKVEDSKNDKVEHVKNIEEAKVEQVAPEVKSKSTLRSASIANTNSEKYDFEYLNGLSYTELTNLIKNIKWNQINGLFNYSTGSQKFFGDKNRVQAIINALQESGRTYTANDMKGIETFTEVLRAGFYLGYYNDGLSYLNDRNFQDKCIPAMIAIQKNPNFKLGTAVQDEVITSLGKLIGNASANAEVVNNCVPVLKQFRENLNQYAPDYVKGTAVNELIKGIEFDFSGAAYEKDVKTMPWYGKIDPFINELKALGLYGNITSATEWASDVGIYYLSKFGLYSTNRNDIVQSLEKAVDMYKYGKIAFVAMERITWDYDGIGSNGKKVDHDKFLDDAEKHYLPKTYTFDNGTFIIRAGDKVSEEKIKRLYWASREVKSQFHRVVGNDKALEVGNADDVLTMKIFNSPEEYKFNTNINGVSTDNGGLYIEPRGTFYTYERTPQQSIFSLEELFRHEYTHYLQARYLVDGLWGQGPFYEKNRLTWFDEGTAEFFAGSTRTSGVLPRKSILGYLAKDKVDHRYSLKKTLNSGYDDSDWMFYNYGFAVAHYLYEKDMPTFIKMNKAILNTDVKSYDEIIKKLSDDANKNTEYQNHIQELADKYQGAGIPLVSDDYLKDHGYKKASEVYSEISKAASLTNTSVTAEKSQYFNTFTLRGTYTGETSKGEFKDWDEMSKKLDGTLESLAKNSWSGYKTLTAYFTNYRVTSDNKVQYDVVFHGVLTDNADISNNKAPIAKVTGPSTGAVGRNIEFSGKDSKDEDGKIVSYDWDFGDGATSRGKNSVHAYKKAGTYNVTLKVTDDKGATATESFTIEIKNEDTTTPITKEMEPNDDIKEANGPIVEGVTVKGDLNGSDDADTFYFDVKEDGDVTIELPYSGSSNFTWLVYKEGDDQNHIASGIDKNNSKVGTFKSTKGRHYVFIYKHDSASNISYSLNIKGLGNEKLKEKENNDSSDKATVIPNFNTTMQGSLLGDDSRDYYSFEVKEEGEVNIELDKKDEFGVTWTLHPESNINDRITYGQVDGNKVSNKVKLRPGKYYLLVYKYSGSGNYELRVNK
# Experiment: MMP Enzyme Inhibition Assay
# Method: Initial rates for the hydrolysis of the thioester substrate were used for assessing the catalytic activity and inhibition of the MMPs by the spectrophotometric method. The change of absorbance at 405 nm was monitored. The inhibition constant Ki was then determined by using Easson-Stedman plots and a linear regression program.
row,Structure (SMILES),Ki [µM]
1,"CC(NC(=O)C(Cc1ccccc1)NS(=O)(=O)c1ccc2ccccc2c1)C(=O)Nc1nnc(S)s1 (stereo unspecified) [2-(naphthalene-2-sulfonamido)-3-phenyl-N-{1-[(5-sulfanyl-1,3,4-thiadiazol-2-yl)carbamoyl]ethyl}propanamide]",40
2,"CC(NC(=O)C(Cc1ccccc1)NC(=O)NS(=O)(=O)c1ccc(Cl)cc1)C(=O)Nc1nnc(S)s1 (stereo unspecified) [2-({[(4-chlorobenzene)sulfonyl]carbamoyl}amino)-3-phenyl-N-{1-[(5-sulfanyl-1,3,4-thiadiazol-2-yl)carbamoyl]ethyl}propanamide]",0.3
3,"CC(NC(=O)C(Cc1ccccc1)NC(=O)NS(=O)(=O)c1ccc(F)cc1)C(=O)Nc1nnc(S)s1 (stereo unspecified) [2-({[(4-fluorobenzene)sulfonyl]carbamoyl}amino)-3-phenyl-N-{1-[(5-sulfanyl-1,3,4-thiadiazol-2-yl)carbamoyl]ethyl}propanamide]",0.2
4,"Cc1ccc(S(=O)(=O)NC(=O)NC(Cc2ccccc2)C(=O)NC(C)C(=O)Nc2nnc(S)s2)cc1 (stereo unspecified) [2-({[(4-methylbenzene)sulfonyl]carbamoyl}amino)-3-phenyl-N-{1-[(5-sulfanyl-1,3,4-thiadiazol-2-yl)carbamoyl]ethyl}propanamide]",4
5,"CC(NC(=O)C(Cc1ccccc1)NS(=O)(=O)c1c(F)c(F)c(F)c(F)c1F)C(=O)Nc1nnc(S)s1 (stereo unspecified) [2-[(2,3,4,5,6-pentafluorobenzene)sulfonamido]-3-phenyl-N-{1-[(5-sulfanyl-1,3,4-thiadiazol-2-yl)carbamoyl]ethyl}propanamide]",5
6,"CC(NC(=O)C(Cc1ccccc1)NS(=O)(=O)c1cc(Cl)ccc1Cl)C(=O)Nc1nnc(S)s1 (stereo unspecified) [2-[(2,5-dichlorobenzene)sulfonamido]-3-phenyl-N-{1-[(5-sulfanyl-1,3,4-thiadiazol-2-yl)carbamoyl]ethyl}propanamide]",15
7,"CC(=O)Nc1ccc(S(=O)(=O)NC(Cc2ccccc2)C(=O)NC(C)C(=O)Nc2nnc(S)s2)cc1 (stereo unspecified) [2-[(4-acetamidobenzene)sulfonamido]-3-phenyl-N-{1-[(5-sulfanyl-1,3,4-thiadiazol-2-yl)carbamoyl]ethyl}propanamide]",16
8,"CC(NC(=O)C(Cc1ccccc1)NS(=O)(=O)c1ccc(Br)cc1)C(=O)Nc1nnc(S)s1 (stereo unspecified) [2-[(4-bromobenzene)sulfonamido]-3-phenyl-N-{1-[(5-sulfanyl-1,3,4-thiadiazol-2-yl)carbamoyl]ethyl}propanamide]",16
9,"CC(NC(=O)C(Cc1ccccc1)NS(=O)(=O)c1ccc(F)cc1)C(=O)Nc1nnc(S)s1 (stereo unspecified) [2-[(4-fluorobenzene)sulfonamido]-3-phenyl-N-{1-[(5-sulfanyl-1,3,4-thiadiazol-2-yl)carbamoyl]ethyl}propanamide]",21
10,"CC(NC(=O)C(Cc1ccccc1)NS(=O)(=O)c1ccc(I)cc1)C(=O)Nc1nnc(S)s1 (stereo unspecified) [2-[(4-iodobenzene)sulfonamido]-3-phenyl-N-{1-[(5-sulfanyl-1,3,4-thiadiazol-2-yl)carbamoyl]ethyl}propanamide]",14
11,"COc1ccc(S(=O)(=O)NC(Cc2ccccc2)C(=O)NC(C)C(=O)Nc2nnc(S)s2)cc1 (stereo unspecified) [2-[(4-methoxybenzene)sulfonamido]-3-phenyl-N-{1-[(5-sulfanyl-1,3,4-thiadiazol-2-yl)carbamoyl]ethyl}propanamide]",14
12,"Cc1ccc(S(=O)(=O)NC(Cc2ccccc2)C(=O)NC(C)C(=O)Nc2nnc(S)s2)cc1 (stereo unspecified) [2-[(4-methylbenzene)sulfonamido]-3-phenyl-N-{1-[(5-sulfanyl-1,3,4-thiadiazol-2-yl)carbamoyl]ethyl}propanamide]",15
13,"CC(NC(=O)C(Cc1ccccc1)NS(=O)(=O)c1ccc([N+](=O)[O-])cc1)C(=O)Nc1nnc(S)s1 (stereo unspecified) [2-[(4-nitrobenzene)sulfonamido]-3-phenyl-N-{1-[(5-sulfanyl-1,3,4-thiadiazol-2-yl)carbamoyl]ethyl}propanamide]",13
14,"CC(NC(=O)C(Cc1ccccc1)NS(=O)(=O)CC12CCC(CC1=O)C2(C)C)C(=O)Nc1nnc(S)s1 (stereo unspecified) [2-[({7,7-dimethyl-2-oxobicyclo[2.2.1]heptan-1-yl}methane)sulfonamido]-3-phenyl-N-{1-[(5-sulfanyl-1,3,4-thiadiazol-2-yl)carbamoyl]ethyl}propanamide]",25
15,"CC(NC(=O)C(Cc1ccccc1)NS(=O)(=O)c1cccc2c(N(C)C)cccc12)C(=O)Nc1nnc(S)s1 (stereo unspecified) [2-{[5-(dimethylamino)naphthalene-1-]sulfonamido}-3-phenyl-N-{1-[(5-sulfanyl-1,3,4-thiadiazol-2-yl)carbamoyl]ethyl}propanamide]",43
16,"CC(NC(=O)C(Cc1ccccc1)NC(=O)NS(=O)(=O)c1ccccc1)C(=O)Nc1nnc(S)s1 (stereo unspecified) [2-{[(benzenesulfonyl)carbamoyl]amino}-3-phenyl-N-{1-[(5-sulfanyl-1,3,4-thiadiazol-2-yl)carbamoyl]ethyl}propanamide]",3
17,"CC(NC(=O)C(Cc1ccccc1)NS(=O)(=O)Cc1ccccc1)C(=O)Nc1nnc(S)s1 (stereo unspecified) [3-phenyl-2-(phenylmethane)sulfonamido-N-{1-[(5-sulfanyl-1,3,4-thiadiazol-2-yl)carbamoyl]ethyl}propanamide]",19
18,"CC(NC(=O)C(Cc1ccccc1)NS(=O)(=O)c1cccc2cccnc12)C(=O)Nc1nnc(S)s1 (stereo unspecified) [3-phenyl-2-(quinoline-8-sulfonamido)-N-{1-[(5-sulfanyl-1,3,4-thiadiazol-2-yl)carbamoyl]ethyl}propanamide]",36
19,"CC(NC(=O)C(Cc1ccccc1)NS(=O)(=O)c1cccs1)C(=O)Nc1nnc(S)s1 (stereo unspecified) [3-phenyl-N-{1-[(5-sulfanyl-1,3,4-thiadiazol-2-yl)carbamoyl]ethyl}-2-(thiophene-2-sulfonamido)propanamide]",9
20,"Cc1cc(C)c(S(=O)(=O)NC(Cc2ccccc2)C(=O)NC(C)C(=O)Nc2nnc(S)s2)c(C)c1 (stereo unspecified) [3-phenyl-N-{1-[(5-sulfanyl-1,3,4-thiadiazol-2-yl)carbamoyl]ethyl}-2-[(2,4,6-trimethylbenzene)sulfonamido]propanamide]",17
21,"CC(NC(=O)C(Cc1ccccc1)NS(=O)(=O)c1cccc(C(F)(F)F)c1)C(=O)Nc1nnc(S)s1 (stereo unspecified) [3-phenyl-N-{1-[(5-sulfanyl-1,3,4-thiadiazol-2-yl)carbamoyl]ethyl}-2-{[3-(trifluoromethyl)benzene]sulfonamido}propanamide]",9
